{"source": "patent US6924145B1", "about": "“Selection method” (Danisco A/S, priority 1998, dated 2005)", "key": {"[1]": {"tested_on": "oil seed rape hypocotyl explants", "experiment": "Toxicity of galactose to oil seed rape hypocotyl explants (shoot regeneration)", "type": "cell-based, Brassica napus", "experimental": "(§1) In order to be useful for selection, the selective component (otherwise called selective agent) should not be able to sustain significant growth and preferably have adverse/toxic effects to the non-transformed cells/tissues. To assess the applicability of galactose selection following transformation, a number of plant species representing a range of different botanical families were tested for sensitivity to galactose, using explants which may be suitable for transformation experiments.\nHypocotyl explants useful for the transformation of oil seed rape were prepared using a protocol modified after Radke et al. (1988. Theor. Appl. Genet. 78: 161-168). Hypocotyls of 5 d old seedlings were cut into 1 cm segments and transferred to modified MS-medium (Murashige and Skoog 1962. Physiol. Plant. 15: 473-497) containing sucrose and galactose according to the experiment. After 3-4 weeks, shoots were harvested and the explants were transferred to fresh medium of the same composition. This was repeated for 3 more harvests and the total number of regenerated shoots formed on each medium was calculated (see table below)."}, "[2]": {"tested_on": "tissues of maize", "details": "Roberts et al.; cited from earlier work"}, "[3]": {"tested_on": "immature wheat embryos", "experiment": "Toxicity of galactose to immature wheat embryos (germination and shoot growth)", "type": "cell-based, Triticum aestivum", "details": "20 g/l sucrose, relative to control medium (no galactose) = 100", "experimental": "In order to be useful for selection, the selective component (otherwise called selective agent) should not be able to sustain significant growth and preferably have adverse/toxic effects to the non-transformed cells/tissues. To assess the applicability of galactose selection following transformation, a number of plant species representing a range of different botanical families were tested for sensitivity to galactose, using explants which may be suitable for transformation experiments. As an example of a monocotyledonous species, wheat was studied. Immature wheat embryos (2-3 weeks old, a total of 161) were carefully removed from the seed and were cultivated on Gamborg B5 medium (Gamborg et al. 1968. Exp. Cell Res. 50: 151-158) supplemented with 9.0 g/l Bacto agar. 20 g/l sucrose and galactose according to the experiment. The embryos were cultivated in the dark for about 10 days where germinated embryos were transferred to fresh medium of the same composition and cultivated in a 16 h/8 h day/night regime for 4-5 weeks. The effect of galactose was evaluated by the number of germinated embryos and by measuring the length of the leaf on these embryos, relative to the control medium (no galactose)."}, "[4]": {"tested_on": "sunflower explants", "experiment": "Toxicity of galactose to sunflower apical explants (fresh weight)", "type": "cell-based, Helianthus annuus", "details": "20 g/l sucrose, 4-5 weeks, above controls on medium devoid of carbohydrate", "experimental": "as §1\nThe preparation of apical explants useful for the transformation of sunflower were modified according to Knittel et al. (1994. Plant Cell Rep. 14: 81-86). The seed coats of 2 d old seedlings were gently removed and the cotyledons, the emerging root and the top of the apex were removed. The remaining part of the apex was cut off and divided into two halves and cultivated according to Knittel et al., with 20 g/l sucrose in the medium and galactose according to the experiment. After 4-5 weeks of culture at a 16 h/8 h day/night regime, growth was monitored by determining the fresh weight of the explants (above controls grown on a medium devoid of any carbohydrate source)."}, "[5]": {"tested_on": "potato leaf explants", "experiment": "Toxicity of galactose to potato leaf explants (shoot regeneration)", "type": "cell-based, Solanum tuberosum", "experimental": "In order to be useful for selection, the selective component (otherwise called selective agent) should not be able to sustain significant growth and preferably have adverse/toxic effects to the non-transformed cells/tissues. To assess the applicability of galactose selection following transformation, a number of plant species representing a range of different botanical families were tested for sensitivity to galactose, using explants which may be suitable for transformation experiments. Young leaves useful for the transformation of potato were prepared from leaves of 28 d old in vitro shoot cultures. The leaves were cut off avoiding the meristem at the leaf corner and were cut twice across the […]. The explants were then put on modified MS-medium (Murashige and Skoog 1962. Physiol. Plant. 15: 473-497) containing various concentrations of sucrose and galactose. After 3 weeks, shoots were harvested and the explants were transferred to fresh medium of the same composition. This was repeated for 2 more harvests and the total number of explants with regenerated shoots formed on each medium was calculated (see table below)."}, "[6]": {"tested_on": "oil seed rape hypocotyl explants inoculated with Agrobacterium tumefaciens EHA101", "experiment": "Selection of transgenic oil seed rape on galactose containing media", "type": "cell-based, Brassica napus", "details": "galactose 2.5 g/l, sucrose 10 g/l", "experimental": "Hypocotyl explants of oil seed rape were prepared using a protocol modified according to Radke et al. (1988. Theor. Appl. Genet. 78: 161-168). Hypocotyls of 5 d old seedlings were cut into 1 cm segments and inoculated with a suspension of Agrobacterium tumefaciens strain EHA101 (OD660=0.1-0.5, prepared according to standard procedures). After inoculation, the explants were dried carefully on filterpaper before co-cultivation.\n(§2) After co-culture, the explants were transferred to selection medium consisting of modified MS-medium (Murashige and Skoog 1962. Physiol. Plant. 15: 473-497) supplemented with 500 mg/l carbenicillin and various concentrations of sucrose and galactose. After 7-8 weeks, shoots were harvested and transgenicity was evaluated by subjecting the harvested shoots to the assay for β-glucuronidase activity (Jefferson et al. 1987. Plant Mol. Biol. Rep. 5: 387-405), a marker enzyme encoded by a gene placed adjacent the selective gene on the T-DNA of the transformation vector (FIG. 3)."}, "[7]": {"tested_on": "Petunia", "experiment": "Sensitivity of Petunia to galactose", "type": "cell-based", "experimental": "as §1"}, "[8]": {"tested_on": "pea hypocotyl explants", "experiment": "Toxicity of galactose to pea hypocotyl explants", "type": "cell-based, Pisum sativum", "details": "after 5 weeks; versus control medium with 20 g/l sucrose (no galactose)", "experimental": "as §1, with “experiments. Hypocotyl explants useful for the transformation of pea were prepared by excising the hypocotyl from 7 d old seedlings and transferred to a medium, according to Nielsen er al. (1991. Physiol. Plant 82: 99-102), containing various concentrations of sucrose and galactose. After 5 weeks, the growth of the explants were evaluated.” for “experiments.”"}, "[9]": {"tested_on": "sugar beet cotyledonary explants", "experiment": "Toxicity of galactose to sugar beet cotyledonary explants", "type": "cell-based, Beta vulgaris", "details": "20 g/l sucrose and various concentrations galactose; 4-5 weeks", "experimental": "In order to be useful for selection, the selective component (otherwise called selective agent) should not be able to sustain significant growth and preferably have adverse/toxic effects to the non-transformed cells/tissues. To assess the applicability of galactose selection following transformation, a number of plant species representing a range of different botanical families were tested for sensitivity to galactose, using explants which may be suitable for transformation experiments. Cotyledonary explants useful for the transformation of sugar beet were prepared by excising the cotyledons from […] seedlings (Joersbo er al. 1998. Mol. Breeding 4: 111-117). The leaves were transferred to modified MS-medium (Murashiee and Skoog 1962. Physiol. Plant. 15: 473-497) containing 20 g/l sucrose and various concentrations galactose."}, "[10]": {"tested_on": "potato explants transformed with pVIC-galT", "experiment": "Selection of transgenic potato shoots (galT vector) on galactose containing media", "type": "cell-based, Solanum tuberosum", "details": "for No. of transgenic shoots: GUS assay", "experimental": "Young leaves useful for the transformation of potato were prepared from leaves of 28 d old in vitro shoot cultures. The leaves were cut off avoiding the meristem at the leaf corner and were cut twice across the midvein. The explants were inoculated for 30 min. with a suspension of Agrobacterium tumefaciens strain EHA101 (OD660=0.5) harbouring the transformation vector described above. After inoculation, the explants were dried carefully on filterpaper and left for co-cultivation for 3 d in dim light.\nas §2, with “of” for “of modified”, “3 and 6” for “7-8”, “4).” for “3).”"}, "[11]": {"tested_on": "tissues of barley", "details": "Roberts et al.; cited from earlier work"}, "[12]": {"details": "2.5 g/l galactose, sucrose 0 g/l"}, "[13]": {"details": "2.5 g/l galactose, sucrose 5.0 g/l"}, "[14]": {"details": "2.5 g/l galactose, sucrose 10 g/l"}, "[15]": {"details": "2.5 g/l galactose, sucrose 20 g/l"}, "[16]": {"details": "5.0 g/l galactose, sucrose 0 g/l"}, "[17]": {"details": "5.0 g/l galactose, sucrose 5.0 g/l"}, "[18]": {"details": "5.0 g/l galactose, sucrose 10 g/l"}, "[19]": {"details": "5.0 g/l galactose, sucrose 20 g/l"}, "[20]": {"details": "galactose 1.25 g/l, sucrose 10 g/l"}, "[21]": {"details": "galactose 1.25 g/l, sucrose 15 g/l"}, "[22]": {"details": "galactose 1.25 g/l, sucrose 20 g/l"}, "[23]": {"details": "galactose 2.5 g/l, sucrose 10 g/l"}, "[24]": {"details": "galactose 2.5 g/l, sucrose 15 g/l"}, "[25]": {"details": "galactose 2.5 g/l, sucrose 20 g/l"}}}
{"compound": "OC[C@H]1OC(O)[C@H](O)[C@@H](O)[C@H]1O", "note": "(mixture of isomers) [galactose]", "values": [{"measurement": "total number of regenerated shoots", "setting": "[1]; [12]", "result": 0}, {"measurement": "total number of regenerated shoots", "setting": "[1]; [13]", "result": 1}, {"measurement": "total number of regenerated shoots", "setting": "[1]; [14]", "result": 7}, {"measurement": "total number of regenerated shoots", "setting": "[1]; [15]", "result": 26}, {"measurement": "total number of regenerated shoots", "setting": "[1]; [16]", "result": 0}, {"measurement": "total number of regenerated shoots", "setting": "[1]; [17]", "result": 0}, {"measurement": "total number of regenerated shoots", "setting": "[1]; [18]", "result": 3}, {"measurement": "total number of regenerated shoots", "setting": "[1]; [19]", "result": 22}, {"measurement": "toxicity to tissues of maize", "setting": "[2]", "result": "toxic"}, {"measurement": "Average shoot length", "setting": "[3]; galactose 2.5 g/l", "result": 89}, {"measurement": "Germination of embryos", "setting": "[3]; galactose 2.5 g/l", "result": 43}, {"measurement": "Average shoot length", "setting": "[3]; galactose 5.0 g/l", "result": 67}, {"measurement": "Germination of embryos", "setting": "[3]; galactose 5.0 g/l", "result": 29}, {"measurement": "Average shoot length", "setting": "[3]; galactose 7.5 g/l", "result": 0}, {"measurement": "Germination of embryos", "setting": "[3]; galactose 7.5 g/l", "result": 0}, {"measurement": "Average shoot length", "setting": "[3]; galactose 10 g/l", "result": 33}, {"measurement": "Germination of embryos", "setting": "[3]; galactose 10 g/l", "result": 14}, {"measurement": "Average shoot length", "setting": "[3]; galactose 15 g/l", "result": 0}, {"measurement": "Germination of embryos", "setting": "[3]; galactose 15 g/l", "result": 0}, {"measurement": "Fresh weight", "setting": "[4]; galactose 5.0 g/l", "result": 28, "unit": "mg/explant"}, {"measurement": "Fresh weight", "setting": "[4]; galactose 7.5 g/l", "result": 0, "unit": "mg/explant"}, {"measurement": "Fresh weight", "setting": "[4]; galactose 10 g/l", "result": 0, "unit": "mg/explant"}, {"measurement": "Fresh weight", "setting": "[4]; galactose 15 g/l", "result": 0, "unit": "mg/explant"}, {"measurement": "total number of explants with regenerated shoots", "setting": "[5]; [12]", "result": 1}, {"measurement": "total number of explants with regenerated shoots", "setting": "[5]; [13]", "result": 0}, {"measurement": "total number of explants with regenerated shoots", "setting": "[5]; [14]", "result": 0}, {"measurement": "total number of explants with regenerated shoots", "setting": "[5]; [15]", "result": 7}, {"measurement": "total number of explants with regenerated shoots", "setting": "[5]; [16]", "result": 0}, {"measurement": "total number of explants with regenerated shoots", "setting": "[5]; [17]", "result": 0}, {"measurement": "total number of explants with regenerated shoots", "setting": "[5]; [18]", "result": 0}, {"measurement": "total number of explants with regenerated shoots", "setting": "[5]; [19]", "result": 0}, {"measurement": "Transformation frequency (%)", "setting": "[6]", "result": 1.0, "unit": "%"}, {"measurement": "No. of transgenic shoots", "setting": "[6]; shoots more than 50% β-glucuronidase-positive, 7-8 weeks", "result": 4}, {"measurement": "sensitivity to galactose (level of toxicity)", "setting": "[7]", "result": "fairly tolerant"}, {"measurement": "ability of galactose to sustain growth", "setting": "[7]; stated for all tested plant species incl. Petunia", "result": "unable to sustain growth"}, {"measurement": "growth of the explants", "setting": "[8]", "result": "unable to sustain any growth"}, {"measurement": "fresh weight of the explants", "setting": "[9]", "result": "significant reduction"}, {"measurement": "number of shoots", "setting": "[9]", "result": "significant reduction"}, {"measurement": "Transformation frequency (%)", "setting": "[10]; [20]", "result": 6.0, "unit": "%"}, {"measurement": "No. of transgenic shoots", "setting": "[10]; [20]", "result": 3}, {"measurement": "Transformation frequency (%)", "setting": "[10]; [21]", "result": 14.0, "unit": "%"}, {"measurement": "No. of transgenic shoots", "setting": "[10]; [21]", "result": 7}, {"measurement": "Transformation frequency (%)", "setting": "[10]; [22]", "result": 6.0, "unit": "%"}, {"measurement": "No. of transgenic shoots", "setting": "[10]; [22]", "result": 3}, {"measurement": "Transformation frequency (%)", "setting": "[10]; [23]", "result": 2.0, "unit": "%"}, {"measurement": "No. of transgenic shoots", "setting": "[10]; [23]", "result": 1}, {"measurement": "Transformation frequency (%)", "setting": "[10]; [24]", "result": 0, "unit": "%"}, {"measurement": "No. of transgenic shoots", "setting": "[10]; [24]", "result": 0}, {"measurement": "Transformation frequency (%)", "setting": "[10]; [25]", "result": 8.0, "unit": "%"}, {"measurement": "No. of transgenic shoots", "setting": "[10]; [25]", "result": 4}, {"measurement": "toxicity to tissues of barley", "setting": "[11]", "result": "toxic"}]}
